Assay results reported in ChEMBL document CHEMBL1909046, “DrugMatrix in vitro pharmacology data”.

Assays:
[1] = DRUGMATRIX: Calcium Channel Type L, Benzothiazepine radioligand binding (ligand: [3H] Diltiazem); assay type: cell membranes, Rattus norvegicus, Wistar, Brain, Membrane; conditions: Not Active = under 50% inhibition at 10 µM
[2] = DRUGMATRIX: Calcium Channel Type L, Dihydropyridine radioligand binding (ligand: [3H] Nitrendipine); assay type: cell membranes, Rattus norvegicus, Wistar, Cerebral cortex, Membrane; conditions: Not Active = under 50% inhibition at 10 µM
[3] = target: 5-hydroxytryptamine receptor 2B (Homo sapiens, UniProt P41595); assay type: cell membranes, CHO-K1, Membrane; conditions: cho-k1; also: in other assays of this panel Not Active means under 50% inhibition at 10 µM
Chain of 5-hydroxytryptamine receptor 2B (P41595 whole entry): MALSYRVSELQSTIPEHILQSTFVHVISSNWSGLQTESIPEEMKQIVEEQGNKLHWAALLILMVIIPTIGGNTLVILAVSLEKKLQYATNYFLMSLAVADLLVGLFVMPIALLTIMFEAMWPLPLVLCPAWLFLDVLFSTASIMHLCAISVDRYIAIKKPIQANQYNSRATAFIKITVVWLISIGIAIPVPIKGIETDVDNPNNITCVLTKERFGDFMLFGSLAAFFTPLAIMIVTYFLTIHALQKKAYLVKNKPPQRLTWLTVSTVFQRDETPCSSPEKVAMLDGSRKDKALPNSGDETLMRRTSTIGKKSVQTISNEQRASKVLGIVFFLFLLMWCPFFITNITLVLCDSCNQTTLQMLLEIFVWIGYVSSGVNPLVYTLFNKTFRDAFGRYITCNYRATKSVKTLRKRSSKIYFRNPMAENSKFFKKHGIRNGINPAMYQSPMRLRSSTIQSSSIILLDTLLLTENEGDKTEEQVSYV

[4] = target: T1, Vasoactive intestinal polypeptide receptor 1 (Homo sapiens, UniProt P32241); assay type: cell membranes, Membrane; conditions: ht-29; also: in other assays of this panel Not Active means under 50% inhibition at 10 µM
T1 sequence (P32241 whole entry): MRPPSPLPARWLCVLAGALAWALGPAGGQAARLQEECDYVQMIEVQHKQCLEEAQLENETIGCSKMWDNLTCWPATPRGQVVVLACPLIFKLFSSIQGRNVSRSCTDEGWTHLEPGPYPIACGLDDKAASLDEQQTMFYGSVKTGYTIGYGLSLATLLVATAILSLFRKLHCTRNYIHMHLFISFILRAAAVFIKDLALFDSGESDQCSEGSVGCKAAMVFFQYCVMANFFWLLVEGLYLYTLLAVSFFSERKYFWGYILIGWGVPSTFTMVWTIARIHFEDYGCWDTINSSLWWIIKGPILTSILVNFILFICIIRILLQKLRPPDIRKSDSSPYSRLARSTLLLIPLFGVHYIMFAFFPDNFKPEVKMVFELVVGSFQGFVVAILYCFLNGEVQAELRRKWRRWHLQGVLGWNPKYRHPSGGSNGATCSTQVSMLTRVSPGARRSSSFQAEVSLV

Adenosine receptor A3 = target: T2, Adenosine receptor A3 (Homo sapiens, UniProt P0DMS8); assay type: cell membranes, CHO-K1, Membrane; conditions: cho-k1;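 also: radioligand binding assay with AB-MECA serving as the labeled ligand; in other assays of this panel Not Active means under 50% inhibition at 10 µM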
T2 sequence (P0DMS8 whole entry): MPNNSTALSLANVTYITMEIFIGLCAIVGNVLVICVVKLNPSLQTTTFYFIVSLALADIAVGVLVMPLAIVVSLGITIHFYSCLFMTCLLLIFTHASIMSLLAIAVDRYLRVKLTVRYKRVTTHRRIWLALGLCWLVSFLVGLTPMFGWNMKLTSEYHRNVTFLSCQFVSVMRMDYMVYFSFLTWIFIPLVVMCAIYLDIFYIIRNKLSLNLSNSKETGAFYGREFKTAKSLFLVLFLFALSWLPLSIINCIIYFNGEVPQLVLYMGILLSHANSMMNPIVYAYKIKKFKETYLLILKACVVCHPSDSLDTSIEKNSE

Cytochrome P450 3A4 = Cytochrome P450 3A4 (Homo sapiens, UniProt P08684); conditions: bti-tn-5b1-4; also: in other assays of this panel Not Active means under 50% inhibition at 10 µM
Chain of Cytochrome P450 3A4 (P08684 whole entry): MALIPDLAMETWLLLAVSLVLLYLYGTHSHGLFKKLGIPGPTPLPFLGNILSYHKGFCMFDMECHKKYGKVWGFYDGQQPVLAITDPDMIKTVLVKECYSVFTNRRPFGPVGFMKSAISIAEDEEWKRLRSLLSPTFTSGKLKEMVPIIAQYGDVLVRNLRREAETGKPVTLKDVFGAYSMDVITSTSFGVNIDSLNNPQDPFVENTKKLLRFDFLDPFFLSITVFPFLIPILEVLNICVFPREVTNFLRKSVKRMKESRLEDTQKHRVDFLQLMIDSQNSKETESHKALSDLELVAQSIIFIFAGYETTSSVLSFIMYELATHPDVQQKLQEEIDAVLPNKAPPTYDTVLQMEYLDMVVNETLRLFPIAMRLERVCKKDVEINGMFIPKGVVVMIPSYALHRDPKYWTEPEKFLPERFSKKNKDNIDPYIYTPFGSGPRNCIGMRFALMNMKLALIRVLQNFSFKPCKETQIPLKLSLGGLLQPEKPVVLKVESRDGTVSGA

O=C1CC[C@@H](N2C(=O)c3ccccc3C2=O)C(=O)N1
Not Active: IC50 [1] | Ki [1] | IC50 [2] | Ki [2] | IC50 [3] | IC50 [4] | IC50 (Adenosine receptor A3) | IC50 (Cytochrome P450 3A4) | Ki (Cytochrome P450 3A4)
